Marks after values point to notes of the source that are not given here.
How the values were obtained:
Format in all cases: in vivo, mouse
[1] = system: acyl-modified and total ghrelin in the stomach; assay: Stomach ghrelin content after free fatty acid ingestion (N-RIA / C-RIA); conditions: mice, 14 days; for total ghrelin concentration in the stomach vs control: C-RIA
Method: (§1) RIAs specific for ghrelin were performed as previously described [D2]. Two polyclonal antibodies were raised in rabbits against the N-terminal (Gly^1-Lys^11 with O-n-octanoylation at Ser^3) and C-terminal (Gln^13-Arg^28) fragments of rat ghrelin. RIA incubation mixtures were composed of 100 μl of either standard ghrelin or an unknown sample, with 200 μl of antiserum diluted in RIA buffer (50 mM sodium phosphate buffer (pH 7.4), 0.5% BSA, 0.5% Triton-X100, 80 mM sodium chloride (NaCl), 25 mM disodium ethylenediamine-tetraacetate (EDTA 2-Na) and 0.05% sodium azide (NaN3)) containing 0.5% normal rabbit serum. Anti-rat ghrelin [D1-D11] and anti-rat ghrelin [D13-D28] antisera were used at final dilutions of 1/3,000,000 and 1/20,000, respectively. After a 12-hour incubation at 4° C., 100 μl of ^125I-labeled ligand (20,000 cpm) was added for an additional 36-hour incubation. Then, 100 μl of anti-rabbit goat antibody was added. After incubation for 24 hours at 4° C., free and bound tracers were separated by centrifugation at 3,000 rpm for 30 min. Pellet radioactivity was quantified in a gamma counter (ARC-600, Aloka, Tokyo). All assays were performed in duplicate at 4° C.
Stomachs collected from either mice or rats were washed two times in phosphate buffered physiological saline (pH 7.4). After measuring the wet weight of each sample, the whole stomach tissue was diced and boiled for 5 minutes in a 10-fold volume of water to inactivate intrinsic proteases. After cooling on ice, boiled samples were adjusted to 1 M acetic acid-20 mM hydrochloric acid (HCl). Peptides were extracted following homogenization with a Polytron mixer (PT 6100, Kinematica AG, Littan-Luzern, Switzerland). Extract supernatants, isolated following 15-minute-centrifugation at 15,000 rpm (12,000×g), were lyophilized and stored at −80° C. The lyophilized samples were redissolved in either RIA buffer or calcium mobilization assay buffer prior to ghrelin RIA or calcium mobilization assay, respectively.
Male C57BL/6J mice weighing 20-25 g (10-12 week old) were maintained under controlled temperature (21-23° C.) and light conditions (light on 0700-1900) with ad libitum access to food and water. Medium-chain fatty acids (MCFAs), i.e., n-hexanoic, n-octanoic, and n-lauric acids (Sigma-Aldrich Japan Co., Ltd., Tokyo), were dissolved in water at 5 mg/ml. n-Palmitic acid, a common long-chain fatty acid (LCFA) (Sigma-Aldrich Japan Co., Ltd., Tokyo), was mixed into standard laboratory chow (CLEA Rodent Diet CE-2, CLEA Japan, Osaka) at a concentration of 1% (w/w), to equilibrate the total intake amount of this lipid to the other medium-chain fatty acids contained in the food. Medium- and long-chain triglycerides (MCTs and LCTs), i.e., glyceryl trihexanoate, trioctanoate, tridecanoate and tripalmitates (Wako Pure Chemical, Osaka, Japan), were mixed with standard laboratory chow at a concentration of 5% (w/w). Whole stomach tissues from treated mice were collected at the indicated times (0-14 days) after ingesting the free fatty acid- or triacylglyceride-containing food. Fresh tissue samples from these mice were diced and boiled for 5 minutes in a 10-fold volume of water. The tissue-containing solution was then adjusted to 1M acetic acid after cooling and then homogenized with a Polytron mixer. The supernatant, obtained after centrifugation at 15,000 rpm for 15 minutes, was then lyophilized. The lyophilized material was dissolved in RIA buffer and subjected to ghrelin C- and N-RIA. To elucidate the forms of ghrelin peptides modified by different acyl groups, extracted stomach peptides were collected using a Sep-Pak Plus C18 cartridge (Waters, Milford, Mass.) and subjected to C18 RP-HPLC (Symmetry 300, 3.9×150 mm, Waters) with a linear gradient from 10 to 60% CH3CN/0.1% TFA at a flow rate of 1.0 ml/minute for 40 minutes. Five hundred micro-litter fractions were collected. Ghrelin peptide content in each fraction was measured by ghrelin C- and N-RIA as described above. […]

[2] = system: des-acyl and acyl-modified ghrelin peptides in the stomach; assay: Molecular forms of stomach ghrelin peptide after ingestion (HPLC fractionation, C-RIA); conditions: mice; for stomach ghrelin modified by the acyl group corresponding to the ingested lipid: HPLC peak; for C6:0-ghrelin (n-hexanoyl ghrelin) concentration in the stomach / C8:0-ghrelin (n-octanoyl ghrelin) concentration in the stomach / C10:0-ghrelin (n-decanoyl ghrelin) concentration in the stomach / Des-acyl ghrelin concentration in the stomach / C10:1-ghrelin (n-decenoyl ghrelin) concentration in the stomach: 5% (w/w) in chow, 14 days, from 0.2 mg wet weight, C-RIA after HPLC, mean ± S.D.; for C10:1-ghrelin (n-decenoyl ghrelin) concentration in the stomach: fraction holds unidentified ghrelin molecules too
Method: (§2) Male C57BL/6J mice weighing 20-25 g (10-12 week old) were maintained under controlled temperature (21-23° C.) and light conditions (light on 0700-1900) with ad libitum access to food and water. Medium-chain fatty acids (MCFAs), i.e., n-hexanoic, n-octanoic, and n-lauric acids (Sigma-Aldrich Japan Co., Ltd., Tokyo), were dissolved in water at 5 mg/ml. n-Palmitic acid, a common long-chain fatty acid (LCFA) (Sigma-Aldrich Japan Co., Ltd., Tokyo), was mixed into standard laboratory chow (CLEA Rodent Diet CE-2, CLEA Japan, Osaka) at a concentration of 1% (w/w), to equilibrate the total intake amount of this lipid to the other medium-chain fatty acids contained in the food. Medium- and long-chain triglycerides (MCTs and LCTs), i.e., glyceryl trihexanoate, trioctanoate, tridecanoate and tripalmitates (Wako Pure Chemical, Osaka, Japan), were mixed with standard laboratory chow at a concentration of 5% (w/w). Whole stomach tissues from treated mice were collected at the indicated times (0-14 days) after ingesting the free fatty acid- or triacylglyceride-containing food. Fresh tissue samples from these mice were diced and boiled for 5 minutes in a 10-fold volume of water. The tissue-containing solution was then adjusted to 1M acetic acid after cooling and then homogenized with a Polytron mixer. The supernatant, obtained after centrifugation at 15,000 rpm for 15 minutes, was then lyophilized. The lyophilized material was dissolved in RIA buffer and subjected to ghrelin C- and N-RIA. To elucidate the forms of ghrelin peptides modified by different acyl groups, extracted stomach peptides were collected using a Sep-Pak Plus C18 cartridge (Waters, Milford, Mass.) and subjected to C18 RP-HPLC (Symmetry 300, 3.9×150 mm, Waters) with a linear gradient from 10 to 60% CH3CN/0.1% TFA at a flow rate of 1.0 ml/minute for 40 minutes. Five hundred micro-litter fractions were collected. Ghrelin peptide content in each fraction was measured by ghrelin C- and N-RIA as described above. Degradation of ghrelin was not observed during the extraction.
To clarify what molecular forms of ghrelin peptide are present after the ingestion of triacylglycerol (triacylglycerin), peptide extracts from stomachs of mouse fed chow containing glyceryl trihexanoate (C6:0-MCT), glyceryl trioctanoate (C8:0-MCT), glyceryl tridecanoate (C10:0-MCT), and standard laboratory chow (Control) were fractionated by HPLC, and measured for ghrelin immunoreactivity by C-RIA. […] Based on the observed retention times of synthetic acyl-modified ghrelin peptides, peaks a, d, h, and k corresponded to des-acyl ghrelin, peaks b, f, i, and 1 corresponded to n-octanoyl (C8:0) ghrelin, and peaks c, g, j, and m corresponded to n-decenoyl (10:1) ghrelin.
Male C57BL/6J mice were fed chow mixed with 5% (w/w) glyceryl trihexanoate (C6:0-MCT), glyceryl trioctanoate (C8:0-MCT), or glyceryl tri-decanoate (C10:0-MCT) for 14 days. The concentrations of des-acyl ghrelin, n-hexanoyl ghrelin (C6:0-ghrelin), n-octanoyl ghrelin (C8:0-ghrelin), n-decenoyl ghrelin (C10:1-ghrelin), and n-decanoyl ghrelin (C10:0-ghrelin) from stomach samples (from 0.2 mg wet weight) were measured by ghrelin C-RIA after HPLC fractionation.

[3] = system: n-heptanoyl ghrelin in the stomach; assay: Molecular forms of stomach ghrelin after glyceryl triheptanoate ingestion (HPLC, C-RIA and N-RIA); conditions: mice, HPLC, C-RIA / N-RIA
Method: as §2
Male C57BL/6J mice weighing 20-25 g (10-12 week old) were maintained under controlled temperature (21-23° C.) and light conditions (light on 0700-1900) with ad libitum access to food and water. Glyceryl triheptanoate (Fluka Chemie GmbH, Buchs, Switzerland) was mixed with standard laboratory chow at a concentration of 5% (w/w). Four days after mice were fed glyceryl triheptanoate-containing food, stomachs (total 1,000 mg) were recovered from mice (n=7). The total consumption of glyceryl triheptanoate-containing food was approximately 13.5 g/mouse, amounting to 675 mg total glyceryl triheptanoate ingested by each mouse. Stomachs were minced and boiled for 5 minutes in 5× volumes of water to inactivate intrinsic proteases. […]

[4] = system: acyl-modified and total ghrelin in the stomach; assay: Stomach ghrelin content after medium- to long-chain triacylglycerol ingestion (N-RIA / C-RIA); conditions: mice, 5% (w/w) in chow, two weeks; for production of acyl-modified ghrelin in stomach tissue: N-RIA
Method: as §1, §2
Orally ingested triacylglycerols are intraluminally hydrolyzed and absorbed through the gastro-intestinal mucosa as free fatty acids or monoglycerides. Thus, ingested triacylglycerols may serve as a source of free fatty acids [D26]. To examine if ingested triacylglycerols are used for acyl-modification of ghrelin, mice were fed chow mixed with 5% (w/w) glyceryl trihexanoate (C6), trioctanoate (C8), tridecanoate (C10), and tripalmintate (C16). After two weeks, gastric peptides were extracted. Ghrelin concentration in the stomach of these mice and in that from mice fed standard laboratory chow (Control) (n=8) are shown. The content of acyl-modified and total ghrelins was measured by N- and C-RIA. […]

| Compound | total ghrelin concentration in the stomach vs control [1] | gastric concentration of acyl-modified ghrelin vs control ([1]; N-RIA) | stomach ghrelin modified by the acyl group corresponding to the ingested lipid ([2]; C-RIA) | production of acyl-modified ghrelin in stomach tissue [4] | further results |
| --- | --- | --- | --- | --- | --- |
| CCCCCCCC(=O)O [n-octanoic acid] | No significant changes | increased significantly | increased | – | ratio of n-octanoyl ghrelin/total ghrelin [1]: increased; mean concentration of acyl-modified ghrelin in the stomach ([1]; N-RIA, n=8, control 1,795): 2,455 fmol/mg wet weight |
| CCCC(=O)OCC(COC(=O)CCC)OC(=O)CCC [glyceryl tributyrate] | – | – | not observed | – | – |
| CCCCCCC(=O)O [n-heptanoic acid] | – | – | – | – | appearance of peak b / d (n-heptanoyl ghrelin) immunoreactivity in stomach extracts [3]: also detected |
| CCCCCCCCCCCC(=O)OCC(COC(=O)CCCCCCCCCCC)OC(=O)CCCCCCCCCCC [trilaurate] | – | – | not observed | – | – |
| CCCCCC(=O)O [n-hexanoic acid] | No significant changes | No significant changes | increased | – | – |
| CCCCCCCCCC(=O)O [n-decanoic acid] | No significant changes | No significant changes | increased | – | – |
| CCCCCCCCCCCCC(=O)OCC(O)CO (centres unmarked) [glyceryl tridecanoate] | – | – | increased | no effect | molar ratio of acyl-modified ghrelin/total ghrelin [4]: increased; C6:0-ghrelin (n-hexanoyl ghrelin) concentration in the stomach [2]: 22.1 ± 6.1; C8:0-ghrelin (n-octanoyl ghrelin) concentration in the stomach [2]: 460.0 ± 70.6; C10:0-ghrelin (n-decanoyl ghrelin) concentration in the stomach [2]: 95.1 ± 9.7^a); Des-acyl ghrelin concentration in the stomach [2]: 181.4 ± 31.5^c); C10:1-ghrelin (n-decenoyl ghrelin) concentration in the stomach [2]: 64.5 ± 14.2^b) |
| CCCCCC(=O)OCC(COC(=O)CCCCC)OC(=O)CCCCC [glyceryl trihexanoate] | – | – | increased drastically | slightly suppressed | molar ratio of acyl-modified ghrelin/total ghrelin [4]: decreased significantly; C6:0-ghrelin (n-hexanoyl ghrelin) concentration in the stomach [2]: 237.3 ± 35.0^a); C8:0-ghrelin (n-octanoyl ghrelin) concentration in the stomach [2]: 358.0 ± 33.0^b); C10:0-ghrelin (n-decanoyl ghrelin) concentration in the stomach [2]: 14.1 ± 5.2; Des-acyl ghrelin concentration in the stomach [2]: 245.0 ± 11.0; C10:1-ghrelin (n-decenoyl ghrelin) concentration in the stomach [2]: 133.5 ± 12.1^b); n-octanoyl ghrelin concentration in the stomach vs control ([2]; HPLC peak f, C-RIA): significant decreases |
| CCCCCCCCCCCCCCCC(=O)OCC(COC(=O)CCCCCCCCCCCCCCC)OC(=O)CCCCCCCCCCCCCCC [glyceryl tripalmitate] | – | – | not observed | no effect | – |
| n-palmitic acid | No significant changes | No significant changes | – | – | – |

Reference: US20080293818A1, “Regulator of Physiological Function of Ghrelin and Use Thereof” (priority 2004, published 2008)
